Test results taken from patent publication EP0490380B1, “Use of N,N'-bis 3-(ethylamino)propyl -1,7-heptanediamine and a cytotoxic agent” (MERRELL PHARMACEUTICALS INC., priority 1990, dated 1992).
Read-outs that look alike come from different tables or passages of the source. Marks after values point to notes of the source that are not given here.

Tests used:
[1] = system: MCA38 (mouse colon adenocarcinoma); assay: Cell viability by colorimetric MTT assay after 96 hour incubation, MCA38 cells; format: cell-based; conditions: for IC50: Mus musculus, 96 h
Procedure: (§1) In addition, the Fractional Inhibitory Concentration (FIC) for the various treatments was calculated. FIC's are an accepted measurement of synergy [Middleton and Westmacott, J.Antimicrobial Chemother. […] For two interacting drugs, the sum of the FIC's of each of the treatments expresses the extent of the synergistic interaction.
(§2) Where FIC is less than 1, there is synergy between the two treatments, where FIC is 1, there is no synergy (additive effect). The smaller the value for FIC, the greater the synergistic interaction.

HeLa cells = assay: Cell viability by colorimetric MTT assay after 96 hour incubation, HeLa cells; format: cell-based; conditions: for IC50: Homo sapiens, HeLa
Procedure: as §1, §2

L1210 Leukemia = assay: Conjunctive therapy of L1210 leukemia in vivo (survival); conditions: BDF1 male mice, 10^5 L1210 cells i.p. day 0, control 7.6±0.5
Procedure: Groups of 5 mice (BDF1 male) were inoculated i.p. with 10^5 L1210 leukemia cells on day 0. Vinblastine was administered at 0.5 mg/kg, i.p., on day 3. The compound N,N'-bis(3-(ethylamino) propyl]-1,7-heptanediamine was administered at 5 mg/kg, every 3 hours, 4 times per day, on days 4 and 5. Control group received no treatment after inoculation. Relative survival time was determined and expressed as % T/C (mean survival time treated/mean survival time control x 100). The results of these studies are presented in Table 1. Table 1

Structure (SMILES): Nc1ccn([C@@H]2O[C@H](CO)[C@@H](O)[C@@H]2O)c(=O)n1 [AraC, cytarabine]
- IC50 ([1]; MCA 38 cells, 28,314 at 0 µg/mL (AraC alone), read-out: IC50 AraC): 660 ng/mL
- IC50 ([1]; MCA 38 cells, 28,314 at 0.1563 µg/mL, read-out: IC50 AraC): 596 ng/mL
- IC50 ([1]; MCA 38 cells, 28,314 at 0.3125 µg/mL, read-out: IC50 AraC): 488 ng/mL
- IC50 ([1]; MCA 38 cells, 28,314 at 0.625 µg/mL, read-out: IC50 AraC): 360 ng/mL
- IC50 ([1]; MCA 38 cells, 28,314 at 1.25 µg/mL, read-out: IC50 AraC): 230 ng/mL
- IC50 ([1]; MCA 38 cells, 28,314 at 2.5 µg/mL, read-out: IC50 AraC): 71 ng/mL
- IC50 (HeLa cells; 96 h, 28,314 at 0 µg/mL (AraC alone), read-out: IC50 AraC): 1020 ng/mL
- IC50 (HeLa cells; 96 h, 28,314 at 0.1563 µg/mL, read-out: IC50 AraC): 630 ng/mL
- IC50 (HeLa cells; 96 h, 28,314 at 0.3125 µg/mL, read-out: IC50 AraC): 600 ng/mL
- IC50 (HeLa cells; 96 h, 28,314 at 0.625 µg/mL, read-out: IC50 AraC): 530 ng/mL
- IC50 (HeLa cells; 96 h, 28,314 at 1.25 µg/mL, read-out: IC50 AraC): 370 ng/mL
- IC50 (HeLa cells; 96 h, 28,314 at 2.5 µg/mL, read-out: IC50 AraC): 350 ng/mL
- IC50 (HeLa cells; 96 h, 28,314 at 5 µg/mL, read-out: IC50 AraC): 220 ng/mL
- IC50 (HeLa cells; 96 h, 28,314 at 10 µg/mL, read-out: IC50 AraC): 150 ng/mL
- IC50 (HeLa cells; 96 h, 28,314 at 20 µg/mL, read-out: IC50 AraC): 140 ng/mL
- IC50 (HeLa cells; 96 h, 28,314 at 40 µg/mL, read-out: IC50 AraC): 140 ng/mL
- IC50 (HeLa cells; 96 h, 28,314 at 80 µg/mL, read-out: IC50 AraC): 140 ng/mL

Structure (SMILES): CCNCCCNCCCCCCCNCCCNCC [Compound 28,314, N,N'-Bis[3-(ethylamino)propyl]-1,7-heptanediamine]
- Mean Survival Time (L1210 Leukemia; 28,314 5 mg/kg every 3 hours, 4 times per day (20 mg/Kg/day), days 4,5): 12.6 ± 0.9 days
- IC50 ([1]; MCA 38 cells, Table 2 (cisplatin series), read-out: IC50 28,314 alone): 17700 ng/mL
- IC50 ([1]; MCA 38 cells, Table 3 (adriamycin series), read-out: IC50 28,314 alone): 25000 ng/mL
- IC50 ([1]; MCA 38 cells, Table 4 (AraC series), read-out: IC50 28,314 alone): 3540 ng/mL
- IC50 ([1]; MCA 38 cells, Table 5 (vinblastine series), read-out: IC50 28,314 alone): 10000 ng/mL
- IC50 (HeLa cells; 96 h, Table 6 (cisplatin series), read-out: IC50 28,314 alone): ~200000 ng/mL
- IC50 (HeLa cells; 96 h, Table 7 (adriamycin series), read-out: IC50 28,314 alone): 1590 ng/mL
- IC50 (HeLa cells; 96 h, Table 8 (AraC series), read-out: IC50 28,314 alone): ~160000 ng/mL

Structure (SMILES): CC[C@]1(O)C[C@@H]2CN(CCc3c([nH]c4ccccc34)[C@@](C(=O)OC)(c3cc4c(cc3OC)N(C)[C@H]3[C@@](O)(C(=O)OC)[C@H](OC(C)=O)[C@]5(CC)C=CCN6CC[C@]43[C@@H]65)C2)C1 [Vinblastine, vinblastine]
- Mean Survival Time (L1210 Leukemia; Vinblastine 0.5 mg/kg i.p. day 3): 10.0 ± 0.7 days
- IC50 ([1]; MCA 38 cells, 28,314 at 0 µg/mL (vinblastine alone), read-out: IC50 Vinblastin): 59.5 ng/mL
- IC50 ([1]; MCA 38 cells, 28,314 at 0.1563 µg/mL, read-out: IC50 Vinblastin): 54.8 ng/mL
- IC50 ([1]; MCA 38 cells, 28,314 at 0.3125 µg/mL, read-out: IC50 Vinblastin): 43 ng/mL
- IC50 ([1]; MCA 38 cells, 28,314 at 0.625 µg/mL, read-out: IC50 Vinblastin): 33 ng/mL
- IC50 ([1]; MCA 38 cells, 28,314 at 1.25 µg/mL, read-out: IC50 Vinblastin): 25 ng/mL
- IC50 ([1]; MCA 38 cells, 28,314 at 2.5 µg/mL, read-out: IC50 Vinblastin): 15 ng/mL
- IC50 ([1]; MCA 38 cells, 28,314 at 5.0 µg/mL, read-out: IC50 Vinblastin): 3 ng/mL
- IC50 (HeLa cells; 96 h, 28,314 at 0 µg/mL (vinblastine alone), read-out: IC50 Vinblastin): 1.6 ng/mL
- IC50 (HeLa cells; 96 h, 28,314 at 0.1563 µg/mL, read-out: IC50 Vinblastin): 1.33 ng/mL
- IC50 (HeLa cells; 96 h, 28,314 at 0.3125 µg/mL, read-out: IC50 Vinblastin): 1.33 ng/mL
- IC50 (HeLa cells; 96 h, 28,314 at 0.625 µg/mL, read-out: IC50 Vinblastin): 1.19 ng/mL
- IC50 (HeLa cells; 96 h, 28,314 at 1.25 µg/mL, read-out: IC50 Vinblastin): 1.17 ng/mL
- IC50 (HeLa cells; 96 h, 28,314 at 2.5 µg/mL, read-out: IC50 Vinblastin): 0.63 ng/mL
- IC50 (HeLa cells; 96 h, 28,314 at 5 µg/mL, read-out: IC50 Vinblastin): 0.24 ng/mL
- IC50 (HeLa cells; 96 h, 28,314 at 10 µg/mL, read-out: IC50 Vinblastin): 0.11 ng/mL
- IC50 (HeLa cells; 96 h, 28,314 at 20 µg/mL, read-out: IC50 Vinblastin): 0.09 ng/mL

Structure (SMILES): COc1cccc2c1C(=O)c1c(O)c3c(c(O)c1C2=O)C[C@@](O)(C(=O)CO)C[C@@H]3O[C@H]1C[C@H](N)[C@H](O)[C@H](C)O1 [Adriamycin, adriamycin]
- IC50 ([1]; MCA 38 cells, 28,314 at 0 µg/mL (adriamycin alone), read-out: IC50 Adriamycin): 7.9 ng/mL
- IC50 ([1]; MCA 38 cells, 28,314 at 0.39 µg/mL, read-out: IC50 Adriamycin): 7.5 ng/mL
- IC50 ([1]; MCA 38 cells, 28,314 at 0.78 µg/mL, read-out: IC50 Adriamycin): 7.3 ng/mL
- IC50 ([1]; MCA 38 cells, 28,314 at 1.563 µg/mL, read-out: IC50 Adriamycin): 7 ng/mL
- IC50 ([1]; MCA 38 cells, 28,314 at 3.125 µg/mL, read-out: IC50 Adriamycin): 6.3 ng/mL
- IC50 ([1]; MCA 38 cells, 28,314 at 6.25 µg/mL, read-out: IC50 Adriamycin): 2.5 ng/mL
- IC50 ([1]; MCA 38 cells, 28,314 at 12.5 µg/mL, read-out: IC50 Adriamycin): 1.8 ng/mL
- IC50 (HeLa cells; 96 h, 28,314 at 0 µg/mL (adriamycin alone), read-out: IC50 Adriamycin): 8.6 ng/mL
- IC50 (HeLa cells; 96 h, 28,314 at 0.2 µg/mL, read-out: IC50 Adriamycin): 6.7 ng/mL
- IC50 (HeLa cells; 96 h, 28,314 at 0.39 µg/mL, read-out: IC50 Adriamycin): 5.8 ng/mL
- IC50 (HeLa cells; 96 h, 28,314 at 0.78 µg/mL, read-out: IC50 Adriamycin): 4.8 ng/mL
- IC50 (HeLa cells; 96 h, 28,314 at 1.5625 µg/mL, read-out: IC50 Adriamycin): 1.5 ng/mL

Structure (SMILES): N.N.[Cl][Pt][Cl] [Cisplatin]
- IC50 Cisplatin ([1]; MCA 38 cells, 28,314 at 0 µg/mL (cisplatin alone)): 0.847 µg/mL
- IC50 Cisplatin ([1]; MCA 38 cells, 28,314 at 0.2 µg/mL): 0.58 µg/mL
- IC50 Cisplatin ([1]; MCA 38 cells, 28,314 at 0.39 µg/mL): 0.387 µg/mL
- IC50 Cisplatin ([1]; MCA 38 cells, 28,314 at 0.78 µg/mL): 0.376 µg/mL
- IC50 Cisplatin ([1]; MCA 38 cells, 28,314 at 1.56 µg/mL): 0.276 µg/mL
- IC50 Cisplatin ([1]; MCA 38 cells, 28,314 at 3.125 µg/mL): 0.177* µg/mL
- IC50 Cisplatin ([1]; MCA 38 cells, 28,314 at 6.25 µg/mL): 0.165 µg/mL
- IC50 Cisplatin ([1]; MCA 38 cells, 28,314 at 12.5 µg/mL): 0.053 µg/mL
- IC50 Cisplatin (HeLa cells; 28,314 at 0 µg/mL (cisplatin alone)): 0.359 µg/mL
- IC50 Cisplatin (HeLa cells; 28,314 at 0.39 µg/mL): 0.336 µg/mL
- IC50 Cisplatin (HeLa cells; 28,314 at 0.78 µg/mL): 0.276 µg/mL
- IC50 Cisplatin (HeLa cells; 28,314 at 1.563 µg/mL): 0.186 µg/mL
- IC50 Cisplatin (HeLa cells; 28,314 at 3.125 µg/mL): 0.130 µg/mL
- IC50 Cisplatin (HeLa cells; 28,314 at 6.25 µg/mL): 0.088 µg/mL
- IC50 Cisplatin (HeLa cells; 28,314 at 12.5 µg/mL): 0.074* µg/mL
- IC50 Cisplatin (HeLa cells; 28,314 at 25 µg/mL): 0.068 µg/mL
- IC50 Cisplatin (HeLa cells; 28,314 at 50 µg/mL): 0.068 µg/mL
- IC50 Cisplatin (HeLa cells; 28,314 at 100 µg/mL): 0.057 µg/mL
